Key:
hBlue-cone opsin = target: T1, hBlue-cone opsin (Homo sapiens, UniProt P03999); assay: UV-Vis pigment spectrum; NaBH4 trapping and LC-MS/MS of retinyl peptide and retinyl-Lys; type: binding; conditions: covalent Schiff base to helix VII Lys; dark state; LMNG
T1 construct: gene OPN1SW; recombinant, purified in LMNG; details only in supplement
T1 sequence (P03999 1-345): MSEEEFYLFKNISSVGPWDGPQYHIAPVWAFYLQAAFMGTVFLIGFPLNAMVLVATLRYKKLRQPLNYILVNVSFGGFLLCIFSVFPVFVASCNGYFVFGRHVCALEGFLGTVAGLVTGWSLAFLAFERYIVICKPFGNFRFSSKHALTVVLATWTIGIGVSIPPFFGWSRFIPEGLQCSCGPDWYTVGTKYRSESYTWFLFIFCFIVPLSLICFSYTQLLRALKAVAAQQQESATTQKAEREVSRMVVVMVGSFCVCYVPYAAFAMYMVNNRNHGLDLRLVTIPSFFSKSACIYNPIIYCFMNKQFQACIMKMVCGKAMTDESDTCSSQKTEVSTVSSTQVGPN

hRed-cone opsin = target: T2, hRed-cone opsin (Homo sapiens, UniProt P04000); assay: as above; type: binding; conditions: covalent Schiff base to helix VII Lys; dark state; LMNG
T2 construct: gene OPN1LW; recombinant, purified in LMNG; details only in supplement
T2 sequence (P04000 1-364): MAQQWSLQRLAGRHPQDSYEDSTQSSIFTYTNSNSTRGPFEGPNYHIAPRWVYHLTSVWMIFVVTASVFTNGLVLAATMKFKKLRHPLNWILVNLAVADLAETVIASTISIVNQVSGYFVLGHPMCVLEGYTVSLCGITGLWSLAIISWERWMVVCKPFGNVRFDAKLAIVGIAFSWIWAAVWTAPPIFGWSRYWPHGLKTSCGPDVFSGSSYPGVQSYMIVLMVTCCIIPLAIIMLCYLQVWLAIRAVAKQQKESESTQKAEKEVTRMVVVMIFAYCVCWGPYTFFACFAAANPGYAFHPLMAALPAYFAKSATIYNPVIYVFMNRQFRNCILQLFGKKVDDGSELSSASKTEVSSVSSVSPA

bRho = target: T3, bRho (Bos taurus, UniProt P02699); assay: as above; type: binding; conditions: covalent Schiff base to helix VII Lys; dark state; LMNG
T3 construct: gene RHO; native, from bovine rod outer segments, purified in LMNG
T3 sequence (P02699 whole entry): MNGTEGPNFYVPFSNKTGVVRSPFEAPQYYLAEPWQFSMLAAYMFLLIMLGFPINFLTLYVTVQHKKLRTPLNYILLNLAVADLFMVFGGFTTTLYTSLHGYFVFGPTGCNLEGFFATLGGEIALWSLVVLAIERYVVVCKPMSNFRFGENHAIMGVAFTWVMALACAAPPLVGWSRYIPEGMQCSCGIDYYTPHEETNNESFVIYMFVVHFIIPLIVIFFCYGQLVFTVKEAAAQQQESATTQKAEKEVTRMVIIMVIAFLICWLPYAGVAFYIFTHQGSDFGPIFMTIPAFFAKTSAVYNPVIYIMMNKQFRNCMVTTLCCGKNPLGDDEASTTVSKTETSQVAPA

[1] = target: T4, native bRGR in bRPE microsomal membranes (Bos taurus, UniProt P47803); assay: NaBH4 trapping, HPLC and LC-MS/MS after illumination; type: biochemical; conditions: photoisomerization at 530 nm, then Schiff-base hydrolysis; pH 7.4, 140 mM NaCl; native microsomes
T4 construct: gene RGR; native, untagged, in bovine RPE microsomal membranes; chromophore site given as Lys256
T4 sequence (P47803 1-291): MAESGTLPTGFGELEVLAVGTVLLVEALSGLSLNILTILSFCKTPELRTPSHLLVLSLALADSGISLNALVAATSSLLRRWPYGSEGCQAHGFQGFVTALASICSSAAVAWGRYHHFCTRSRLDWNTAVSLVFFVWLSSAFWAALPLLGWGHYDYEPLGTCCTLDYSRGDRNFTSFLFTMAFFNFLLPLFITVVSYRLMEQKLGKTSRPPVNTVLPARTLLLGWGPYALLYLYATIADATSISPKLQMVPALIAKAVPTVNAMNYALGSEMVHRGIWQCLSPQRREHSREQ

[2] = target: T5, bRGR (recombinant, 1D4-tagged) (Bos taurus, UniProt P47803); assay: UV-Vis pigment spectrum; NaBH4 trapping and LC-MS/MS of retinyl peptide; type: binding; conditions: covalent Schiff base at Lys256; LMNG micelles; before illumination
T5 construct: gene RGR; chromophore site given as Lys256
T5 sequence (P47803 1-291): T4 sequence (P47803 1-291)

[3] = target: T4, native bRGR in bRPE microsomal membranes; assay: NaBH4 trapping, proteinase K or pronase digestion, LC-MS/MS; type: binding; conditions: covalent Schiff base at Lys256; native bovine RPE microsomes; before illumination

SMILES	UV-Vis pigment spectrum; NaBH4 trapping and LC-MS/MS of retinyl peptide and reti (hBlue-cone opsin)	UV-Vis pigment spectrum; NaBH4 trapping and LC-MS/MS of retinyl peptide and reti (hRed-cone opsin)	UV-Vis pigment spectrum; NaBH4 trapping and LC-MS/MS of retinyl peptide and reti (bRho)	NaBH4 trapping, HPLC and LC-MS/MS after illumination [1]	UV-Vis pigment spectrum; NaBH4 trapping and LC-MS/MS of retinyl peptide [2]	NaBH4 trapping, proteinase K or pronase digestion, LC-MS/MS [3]
CC1=C(/C=C/C(C)=C/C=C\C(C)=C\C=O)C(C)(C)CCC1 [11-cis-retinal]	the resultant N^ε-retinyl-Lys was predominantly in the 11-cis configuration	the resultant N^ε-retinyl-Lys was predominantly in the 11-cis configuration	the resultant N^ε-retinyl-Lys was predominantly in the 11-cis configuration	rapid hydrolytic production of 11-cis-retinal by bRGR in native membranes was recapitulated in this study		
CC1=C(/C=C/C(C)=C/C=C/C(C)=C/C=O)C(C)(C)CCC1 [all-trans-retinal]					recombinantly produced bRGR adducted with all-trans-retinal was immunopurified in lauryl maltose neopentyl glycol (LMNG) micelles	Microsomal bRGR reconstituted with slight excess of all-trans-retinal was analyzed by LC-MS/MS
